A short description of test [1]: Cytotoxicity against human KB-3-1 cells by resazurin reduction assay. The class given is functional, cell-based. In general terms: Resazurin is reduced to fluorescent resorufin, in cell work by metabolically active cells.
Test [2] can be described thus: Cytotoxicity against human KBV1 cells by resazurin reduction assay. Type of test: functional, cell-based. The settings on record: KB-V1.
A short description of test [3]: Binding affinity to integrin in human WM-115 cells after 30 mins by immobilized vitronectin-based competitive cell adhesion assay.

In the case of `C=CCOC(=O)C[C@@H]1CNC(=O)[C@@H](Cc2ccc(OC)c(Cl)c2)NC(=O)/C=C/C[C@@H]([C@H](C)[C@H]2O[C@@H]2c2ccccc2)OC(=O)[C@H](CC(C)C)OC1=O`, the results for the IC50 in test [1] and in test [2] were 0.0961 nM and 2.7 nM, respectively. For `C=CCOC(=O)C[C@H]1CNC(=O)[C@@H](Cc2ccc(OC)c(Cl)c2)NC(=O)/C=C/C[C@@H]([C@H](C)[C@H]2O[C@@H]2c2ccccc2)OC(=O)[C@H](CC(C)C)OC1=O`, in that order: 0.0083 nM and 6 nM. For `C=CCOC(=O)CCC[C@@H]1CNC(=O)[C@@H](Cc2ccc(OC)c(Cl)c2)NC(=O)/C=C/C[C@@H]([C@H](C)[C@H]2O[C@@H]2c2ccccc2)OC(=O)[C@H](CC(C)C)OC1=O`, in that order: 0.433 nM and 45.2 nM.

Take `C=CCOCCC[C@@H]1CNC(=O)[C@@H](Cc2ccc(OC)c(Cl)c2)NC(=O)/C=C/C[C@@H]([C@H](C)[C@H]2O[C@@H]2c2ccccc2)OC(=O)[C@H](CC(C)C)OC1=O`: the concentration for half-maximal inhibition (IC50) (as a rule, the concentration that gives 50% inhibition) in test [1] is 0.149 nM; in test [2], 26.6 nM. With `C=CCOCCC[C@H]1CNC(=O)[C@@H](Cc2ccc(OC)c(Cl)c2)NC(=O)/C=C/C[C@@H]([C@H](C)[C@H]2O[C@@H]2c2ccccc2)OC(=O)[C@H](CC(C)C)OC1=O`, the IC50 in test [1] is 0.0527 nM; in test [2], 38 nM. Regarding `COc1ccc(C[C@H]2NC(=O)/C=C/C[C@@H]([C@H](C)[C@H]3O[C@@H]3c3ccccc3)OC(=O)[C@H](CC(C)C)OC(=O)[C@H](CCN=[N+]=[N-])CNC2=O)cc1Cl`, the figures for the IC50 in test [1] and in test [2] were 0.0216 nM and 2.1 nM, respectively. For the compound `COc1ccc(C[C@H]2NC(=O)/C=C/C[C@@H]([C@H](C)[C@H]3O[C@@H]3c3ccccc3)OC(=O)[C@H](CC(C)C)OC(=O)[C@@H](CCN=[N+]=[N-])CNC2=O)cc1Cl`, the IC50 turned out to be 0.0546 nM in test [1] and 14.1 nM in test [2]. With `COc1ccc(C[C@H]2NC(=O)/C=C/C[C@@H]([C@H](C)[C@H]3O[C@@H]3c3ccccc3)OC(=O)[C@H](CC(C)C)OC(=O)[C@H](CCCN=[N+]=[N-])CNC2=O)cc1Cl`, the concentration for half-maximal inhibition (IC50) in test [1] is 0.112 nM; in test [2], 18.4 nM.

Turning to `COc1ccc(C[C@H]2NC(=O)/C=C/C[C@@H]([C@H](C)[C@H]3O[C@@H]3c3ccccc3)OC(=O)[C@H](CC(C)C)OC(=O)[C@@H](CCCN=[N+]=[N-])CNC2=O)cc1Cl`, the IC50 in test [1] amounted to 11.5 nM; in test [2] it was 114 nM. For the compound `COc1ccc(C[C@H]2NC(=O)/C=C/C[C@@H]([C@H](C)[C@H]3O[C@@H]3c3ccccc3)OC(=O)[C@H](CC(C)C)OC(=O)[C@H](CCCCN=[N+]=[N-])CNC2=O)cc1Cl`, the IC50 in test [1] came out at 0.249 nM; in test [2], 23.5 nM. For `COc1ccc(C[C@H]2NC(=O)/C=C/C[C@@H]([C@H](C)[C@H]3O[C@@H]3c3ccccc3)OC(=O)[C@H](CC(C)C)OC(=O)[C@H](CCCn3cc(C(C)(C)O)nn3)CNC2=O)cc1Cl`, in that order: 0.101 nM and 411 nM.

For the compound `COc1ccc(C[C@H]2NC(=O)/C=C/C[C@@H]([C@H](C)[C@H]3O[C@@H]3c3ccccc3)OC(=O)[C@H](CC(C)C)OC(=O)[C@@H](CCCn3cc(C(C)(C)O)nn3)CNC2=O)cc1Cl`, the values for the IC50 in test [1] and in test [2] were 0.312 nM and 3020 nM, respectively.

`COc1ccc(C[C@H]2NC(=O)/C=C/C[C@@H]([C@H](C)[C@H]3O[C@@H]3c3ccccc3)OC(=O)[C@H](CC(C)C)OC(=O)[C@@H](CCCn3cc(C[C@@H]4NC(=O)[C@@H](Cc5ccccc5)NC(=O)[C@H](CC(=O)O)NC(=O)CNC(=O)[C@H](CCCNC(=N)N)NC4=O)nn3)CNC2=O)cc1Cl`: the values for the IC50 in test [1] and in test [2] were 55.8 nM and 1800 nM, respectively. Take `COc1ccc(C[C@H]2NC(=O)/C=C/C[C@@H]([C@H](C)[C@H]3O[C@@H]3c3ccccc3)OC(=O)[C@H](CC(C)C)OC(=O)C(C)(C)CNC2=O)cc1Cl` [CRYPTOPHYCIN 52]: the IC50 in test [1] worked out at 0.0155 nM; in test [2], 0.26 nM. Compound `CC(C)[C@@H]1NC(=O)[C@@H](Cc2ccccc2)NC(=O)[C@H](CC(=O)O)NC(=O)CNC(=O)[C@H](CCCN=C(N)N)NC1=O` [CYCLORGDFV] returned an IC50 in test [3] of 500 nM. This lies in the sub-micromolar range.

For the origin of these results see ChEMBL document CHEMBL2321811, “Conjugates of modified cryptophycins and RGD-peptides enter target cells by endocytosis” (J Med Chem, 2013).
